Measurements reported in US10702486B2, “Treatment of CNS disorders with trans 4-(3,4-dichlorophenyl)-1,2,3,4-tetrahydro-1-naphthalenamine” (SUNOVION PHARMACEUTICALS INC., priority 2002, dated 2020).
Several values for one entry are separate records, joined by “and”; a condition that tells them apart may be missing. Identical values can stand only once. Like-named read-outs stand apart in the source and are kept apart here.

How the values were obtained:
[1] = Hamelin et al. 1996; Serebruany et al. 2001; cited from earlier work
[2] = target: functional uptake of norepinephrine (NE) (Rattus norvegicus, UniProt Q9WTR4); experiment: Norepinephrine functional uptake assay in rat hypothalamus synaptosomes; format: biochemical; settings: [3H]-norepinephrine, 20 minutes at 37° C.
Protocol: (§1) The compounds of the invention were tested for their inhibition of functional uptake of serotonin (5-HT), norepinephrine (NE), or dopamine (DA), in synaptosomes prepared from rat whole brain, hypothalamus, or corpus striatum, respectively.
Norepinephrine Functional Uptake Assay
Characterization of norepinephrine uptake is performed using synaptosomes isolated at Cerep in a 0.32 M sucrose buffer from a male Wistar rat hypothalamus. The uptake of radiolabeled norepinephrine by synaptosomes (100 μg of proteins/point) is allowed by incubating them for 20 minutes at 37° C. in presence of test compounds and [^3H]-norepinephrine (0.1 μCi/point). The experiment is performed in a deep well.
Synaptosomes and [^3H]-norepinephrine are prepared in a Krebs buffer pH 7.4 containing 25 mM NaHCO3, 11 mM glucose and 50 μM ascorbic acid. This incubation buffer is oxygenated during 5 minutes before incubation. Basal control is incubated for 20 minutes at 4° C. in order to avoid any uptake. Following this incubation the uptake is stopped by filtration through an “unifilter 96-wells GFB “Packard plate washed with Krebs buffer containing 25 mM NaHCO3 in order to eliminate the free [^3H]-norepinephrine. The radioactivity associated to the synaptosomes retained onto the unifilter corresponding to the uptake is then measured with a microplate scintillation counter Topcount, Packard using a scintillation liquid microscint 0, Packard.

[3] = target: T1, functional uptake of dopamine (DA) (Rattus norvegicus, UniProt P23977); experiment: Dopamine functional uptake assay in rat striatum synaptosomes; format: biochemical; settings: for IC50: rat striatum synaptosomes, [3H]-dopamine, 15 minutes at 37° C.; for inhibition at 10 µM: tested initially at 10 μM in duplicate, read-out: inhibition of DA uptake (no IC50), Table 1
T1 construct: synaptosomes isolated at Cerep in a 0.32 M sucrose buffer from a male Wistar rat striatum; tissue Cerep; host or cells: male Wistar rat striatum synaptosomes
T1 sequence (P23977 whole entry): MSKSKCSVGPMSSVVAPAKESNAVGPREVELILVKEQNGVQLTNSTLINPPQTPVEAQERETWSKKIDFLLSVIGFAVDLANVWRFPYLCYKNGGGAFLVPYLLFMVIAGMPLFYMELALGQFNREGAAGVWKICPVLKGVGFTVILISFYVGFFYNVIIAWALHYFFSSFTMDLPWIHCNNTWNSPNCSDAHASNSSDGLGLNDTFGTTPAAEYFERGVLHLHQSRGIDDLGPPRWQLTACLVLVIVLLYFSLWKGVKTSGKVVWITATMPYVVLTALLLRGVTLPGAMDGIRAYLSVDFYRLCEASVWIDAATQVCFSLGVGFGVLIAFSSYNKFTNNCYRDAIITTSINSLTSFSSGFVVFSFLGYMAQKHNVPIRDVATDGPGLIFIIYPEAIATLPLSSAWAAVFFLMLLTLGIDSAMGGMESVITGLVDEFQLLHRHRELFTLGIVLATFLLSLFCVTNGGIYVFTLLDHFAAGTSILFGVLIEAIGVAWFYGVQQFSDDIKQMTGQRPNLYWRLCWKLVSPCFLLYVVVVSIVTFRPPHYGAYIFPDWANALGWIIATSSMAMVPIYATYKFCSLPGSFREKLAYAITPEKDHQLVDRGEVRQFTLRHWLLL
Protocol: Dopamine Functional Uptake Assay
Characterization of dopamine uptake is performed using synaptosomes isolated at Cerep in a 0.32 M sucrose buffer from a male Wistar rat striatum. The uptake of radiolabelled dopamine by synaptosomes (20 μg of proteins/point) is allowed by incubating them for 15 minutes at 37° C. in presence of test compounds and [^3H]-dopamine (0.1 μCi/point). The experiment is performed in a deep well. Synaptosomes and [^3H]-dopamine are prepared in a Krebs buffer pH 7.4 containing 25 mM NaHCO3, 11 mM glucose and 50 μM ascorbic acid. This incubation buffer is oxygenated during 5 minutes before incubation. Basal control is incubated for 15 minutes at 4° C. in order to avoid any uptake. Following this incubation the uptake is stopped by filtration through an “unifilter 96-wells GFB Packard plate” washed with Krebs buffer containing 25 mM NaHCO3 in order to eliminate free [^3H]-dopamine. The radioactivity associated to the synaptosomes retained onto the unifilter corresponding to the uptake is then measured with a microplate scintillation counter Topcount, Packard using a scintillation liquid microscint 0, Packard.

[4] = target: T2, functional uptake of serotonin (5-HT) (Rattus norvegicus, UniProt P31652); experiment: Serotonin functional uptake assay in rat synaptosomes; format: biochemical; settings: for inhibition at 10 µM: tested initially at 10 μM in duplicate
T2 construct: synaptosomes isolated in a 0.32M sucrose buffer from a male Wistar rat cortex; from tissue
T2 sequence (P31652 whole entry): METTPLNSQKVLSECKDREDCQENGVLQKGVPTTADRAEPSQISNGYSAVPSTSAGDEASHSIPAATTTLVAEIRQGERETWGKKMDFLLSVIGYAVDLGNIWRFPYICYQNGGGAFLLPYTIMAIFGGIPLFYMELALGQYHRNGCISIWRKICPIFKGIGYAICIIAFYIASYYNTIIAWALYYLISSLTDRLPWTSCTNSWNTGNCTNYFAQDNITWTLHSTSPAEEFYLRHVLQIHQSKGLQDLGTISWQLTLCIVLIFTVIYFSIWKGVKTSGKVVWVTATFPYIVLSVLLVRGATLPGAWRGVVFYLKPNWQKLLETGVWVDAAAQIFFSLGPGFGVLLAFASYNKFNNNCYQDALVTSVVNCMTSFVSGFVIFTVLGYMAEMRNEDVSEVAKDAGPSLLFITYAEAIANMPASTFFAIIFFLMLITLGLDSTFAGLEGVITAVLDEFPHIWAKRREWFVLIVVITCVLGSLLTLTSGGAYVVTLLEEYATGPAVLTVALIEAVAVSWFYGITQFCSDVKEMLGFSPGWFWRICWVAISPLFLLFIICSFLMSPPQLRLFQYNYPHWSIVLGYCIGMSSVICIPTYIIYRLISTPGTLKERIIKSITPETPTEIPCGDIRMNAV
Protocol: as §1
Serotonin Functional Uptake Assay
Characterization of serotonin uptake is performed using synaptosomes isolated in a 0.32M sucrose buffer from a male Wistar rat cortex. The uptake of radiolabelled serotonin by synaptosomes (100 μg of proteins/point) is allowed by incubating them in a deep well for 15 min at 37° C. in presence of test compounds and [^3H]5-hydroxytryptamine (0.1 μCi/point).
Synaptosomes and [^3H]5-hydroxytryptamine are prepared in a Krebs buffer pH 7.4 containing 25 mM NaHCO3, 11 mM glucose and 50 μM ascorbic acid. This incubation buffer is oxygenated during 5 minutes before incubation. Basal control is incubated for 15 minutes at 4° C. in order to avoid any uptake. Following this incubation the uptake is stopped by filtration through an “unifilter 96-wells GFB Packard plate” washed with Krebs buffer containing 25 mM NaHCO3 in order to eliminate the free [^3H]5-hydroxytryptamine. The radioactivity associated to the synaptosomes retained onto the unifilter corresponding to the uptake is then measured with a microplate scintillation counter Topcount, Packard using a scintillation liquid microscint 0, Packard.

[5] = Behavioral Despair Test in Mice; format: in vivo; parameters: key to Dunnett, significance vs vehicle: * indicates a significant difference vs vehicle for P < 0.05 (Dunnett test)
[6] = 10 mg/kg, N = 10, E intraperitoneal
[7] = 50 mg/kg intraperitoneal, N = 10

For `N[C@H]1CC[C@@H](c2ccc(Cl)c(Cl)c2)c2ccccc21` [norsertraline, (1S,4S)-cis 4-(3,4-dichlorophenyl)-1,2,3,4-tetrahydro-1-naphthalenamine], the “neurological activity as stated in literature reports” value [1] is given as “neurologically inactive”.

Work on `N[C@@H]1CC[C@@H](c2ccc(Cl)c(Cl)c2)c2ccccc21` [P, (1R,4S)-trans 4-(3,4-dichlorophenyl)-1,2,3,4-tetrahydro-1-naphthalenamine] yielded an IC50 [2] of 9.6 nM.

Compound `N[C@@H]1CC[C@@H](c2ccc(Cl)c(Cl)c2)c2ccccc21` (racemic) [P + Q, trans-4-(3,4-dichlorophenyl)-1,2,3,4-tetrahydro-1-naphthalenamine] has an IC50 [2] of 8.8 nM and an IC50 [3] of 7.1 nM.

`Fc1ccc(C(OCCN2CCN(CCCc3ccccc3)CC2)c2ccc(F)cc2)cc1` [GBR 12909, reference compound] showed an inhibition at 10 µM ([4]; read-out: inhibition of 5-HT uptake (no IC50), Table 1) of under 50%.

In the case of `O=CN[C@@H]1CC[C@@H](c2ccc(Cl)c(Cl)c2)c2ccccc21` (racemic) [F, N-[4-(3,4-dichlorophenyl)-1,2,3,4-tetrahydronaphthalen-1-yl]formamide], the inhibition at 10 µM ([4]; read-out: inhibition of 5-HT uptake (no IC50), Table 3) is reported as under 50%, the IC50 [2] is reported as 3900 nM and the IC50 [3] is reported as 530 nM.

`CC(NC(C)(C)C)C(=O)c1cccc(Cl)c1` (stereo not drawn) [bupropion, reference compound] gave an IC50 [2] of 611 nM.

For `CN(C)CCCN1c2ccccc2CCc2ccccc21` [imipramine, reference compound], the “Dunnett, significance vs vehicle” value ([5]; 10 mg/kg, N = 10) was “*”, the “Immobility Duration (sec.), individual mice” value [5, 6] was 28 sec. and 156 sec. and 98 sec. and 0 sec. (2×) and 63 sec. and 30 sec. and 56 sec. and 116 sec. and 64 sec and the “Immobility Duration, Mean ± sem” value [5, 6] was 61 s. The inhibition at 10 µM [3] was under 50%.

With `N[C@H]1CC[C@H](c2ccc(Cl)c(Cl)c2)c2ccccc21` [Q, (1S,4R)-trans 4-(3,4-dichlorophenyl)-1,2,3,4-tetrahydro-1-naphthalenamine] the IC50 [2] was 35 nM.

With `O=CN[C@@H]1CC[C@@H](c2ccc(Cl)c(Cl)c2)c2ccccc21` [E, (R,S/S,R) N-[4-(3,4-dichlorophenyl)-1,2,3,4-tetrahydronaphthalen-1-yl]formamide] the IC50 ([4]; rat synaptosomes, [3H]5-hydroxytryptamine, 15 min at 37° C.) was 7500 nM, the IC50 [2] was 400 nM and the “Dunnett, significance vs vehicle” value ([5]; 10 mg/kg, N = 10) was “*”. The “Immobility Duration (sec.), individual mice” value [5, 6] was 59 s and 162 s and 131 s and 22 s and 167 s and 58 s and 135 s and 122 s and 164 s and 50 s, the “Immobility Duration, Mean ± sem” value [5, 6] was 107 s and the “Immobility Duration (sec.), individual mice” value [5, 7] was 15 sec. (2×) and 0 sec. (3×) and 98 sec. and 34 sec. and 59 sec. and 25 sec. and 63 sec. For the same compound, the “Immobility Duration, Mean ± sem” value [5, 7] was 31 s, the “Dunnett, significance vs vehicle” value ([5]; 50 mg/kg, N = 10) was “*” and the IC50 [3] was 510 nM.

Work on `CNCCCC1c2ccccc2C=Cc2ccccc21` [protriptyline, reference compound] yielded an inhibition at 10 µM [3] of under 50%.
